Here are results for one molecule from PMC7543951 (Molecular cell, 2020).

As a reminder, the IC50 is the concentration needed to halve the response being measured. Read a high IC50 as lower potency.

The target in this assay is T1, ROR1 pseudokinase domain (Homo sapiens, UniProt Q01973).
T1 sequence (Q01973 457-752): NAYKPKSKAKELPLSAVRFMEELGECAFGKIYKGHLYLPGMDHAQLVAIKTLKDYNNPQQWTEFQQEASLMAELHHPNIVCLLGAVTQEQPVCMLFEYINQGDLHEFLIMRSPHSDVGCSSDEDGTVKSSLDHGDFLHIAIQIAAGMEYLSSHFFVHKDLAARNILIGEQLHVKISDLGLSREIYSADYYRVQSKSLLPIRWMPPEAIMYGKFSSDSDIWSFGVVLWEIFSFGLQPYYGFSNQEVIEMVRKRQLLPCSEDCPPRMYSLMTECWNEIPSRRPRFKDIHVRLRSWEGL
Put plainly: DSF concentration series. The format is binding.

In turn, `Cc1ccc(C(=O)Nc2ccc(CN3CCN(C)CC3)c(C(F)(F)F)c2)cc1C#Cc1cnc2[nH]ncc2c1` [GZD824] yielded an IC50 of about 1000 nM.
